{
  "source": "patent US8993752B2",
  "about": "“Neprilysin inhibitors” (Theravance Biopharma R&D IP, LLC, priority 2011, dated 2015)",
  "biological_target": "T1, human NEP (Homo sapiens, UniProt P08473)",
  "T1 construct": "purchased R&D Systems, Minneapolis, Minn; 1182-ZN",
  "T1 sequence (P08473 whole entry)": "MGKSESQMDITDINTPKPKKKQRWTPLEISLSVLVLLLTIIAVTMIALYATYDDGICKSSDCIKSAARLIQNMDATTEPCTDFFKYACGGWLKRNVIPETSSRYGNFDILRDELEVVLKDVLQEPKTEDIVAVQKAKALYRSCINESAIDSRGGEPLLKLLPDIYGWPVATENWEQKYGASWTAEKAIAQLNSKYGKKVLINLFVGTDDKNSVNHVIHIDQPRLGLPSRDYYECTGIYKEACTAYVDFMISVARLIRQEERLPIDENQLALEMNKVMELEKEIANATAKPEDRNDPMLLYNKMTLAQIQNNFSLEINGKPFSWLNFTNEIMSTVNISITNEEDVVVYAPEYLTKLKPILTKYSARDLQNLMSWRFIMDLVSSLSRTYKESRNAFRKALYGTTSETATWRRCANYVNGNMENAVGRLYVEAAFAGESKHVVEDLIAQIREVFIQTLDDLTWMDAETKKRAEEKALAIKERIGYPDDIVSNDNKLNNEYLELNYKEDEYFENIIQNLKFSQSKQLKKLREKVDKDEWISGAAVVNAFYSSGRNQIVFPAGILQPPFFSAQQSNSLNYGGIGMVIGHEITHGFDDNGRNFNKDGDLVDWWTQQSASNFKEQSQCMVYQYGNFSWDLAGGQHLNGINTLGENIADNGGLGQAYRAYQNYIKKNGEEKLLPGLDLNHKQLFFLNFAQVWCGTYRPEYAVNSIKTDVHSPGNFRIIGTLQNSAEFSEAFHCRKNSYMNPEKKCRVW",
  "experiment": "In vitro enzyme inhibition assay at human NEP (fluorogenic peptide substrate)",
  "type": "biochemical",
  "conditions": "recombinant human NEP; substrate Mca-D-Arg-Arg-Leu-Dap-(Dnp)-OH 10 μM; 37° C.; values given as ranges; read-out: pKi values at human NEP (converted)",
  "outline": "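Recombinant human NEP pre-incubated 30 min at 37 °C with compound (10 μM to 20 pM), then 10 μM Mca-D-Arg-Arg-Leu-Dap-(Dnp)-OH in 50 mM HEPES pH 7.5, 100 mM NaCl, 0.01% Tween-20, 10 μM ZnSO4. Stopped after 20 min with acetic acid, fluorescence read at 320/405 nm; Ki from nonlinear fit, reported as pKi.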",
  "data": [
    {"smiles": "CN(C)C(=O)c1cc(C(=O)N[C@H](Cc2ccccc2Cl)[C@@H](O)C(=O)O)nn1Cc1ccc(F)cc1", "note": "[Example 2-72, (2R,3R)-4-(2-Chloro-phenyl)-3-{[5-dimethylcarbamoyl-1-(4-fluoro-benzyl)-1H-pyrazole-3-carbonyl]-amino}-2-hydroxy-butyric acid]", "values": [
      {"measurement": "Ki", "result": "12.6 to 100", "unit": "nM"}
    ]},
    {"smiles": "COc1ccc(Cn2nc(C(=O)N[C@H](Cc3ccccc3)[C@@H](O)C(=O)O)cc2C2CC2)cc1", "note": "[Example 8-20, (2R,3R)-3-{[5-Cyclopropyl-1-(4-methoxy-benzyl)-1H-pyrazole-3-carbonyl]-amino}-2-hydroxy-4-phenyl-butyric acid]", "values": [
      {"measurement": "Ki", "result": "1.26 to 10", "unit": "nM"}
    ]},
    {"smiles": "COc1ccc(Cn2nc(C(=O)N[C@H](Cc3ccccc3Cl)[C@@H](O)C(=O)O)cc2C(=O)N(C)C)cc1", "note": "[Example 2-73, (2R,3R)-4-(2-Chloro-phenyl)-3-{[5-dimethylcarbamoyl-1-(4-methoxy-benzyl)-1H-pyrazole-3-carbonyl]-amino}-2-hydroxy-butyric acid]", "values": [
      {"measurement": "Ki", "result": "12.6 to 100", "unit": "nM"}
    ]},
    {"smiles": "O=C(O)C[C@@H](Cc1ccccc1Cl)NC(=O)c1cc(C(=O)O)n(Cc2ccc(Cl)cc2)n1", "note": "[Example 11-3, 5-[(R)-2-Carboxy-1-(2-chloro-benzyl)-ethylcarbamoyl]-2-(4-chloro-benzyl)-2H-pyrazole-3-carboxylic acid]", "values": [
      {"measurement": "Ki", "result": "12.6 to 100", "unit": "nM"}
    ]},
    {"smiles": "O=C(N[C@H](Cc1ccccc1Cl)[C@@H](O)C(=O)O)c1cc(C(=O)O)n(Cc2ccc(Cl)cc2)n1", "note": "[Example 2-1, 5-[(1R,2R)-2-Carboxy-1-(2-chloro-benzyl)-2-hydroxy-ethylcarbamoyl]-2-(4-chloro-benzyl)-2H-pyrazole-3-carboxylic acid]", "values": [
      {"measurement": "Ki", "result": "1.26 to 10", "unit": "nM"}
    ]},
    {"smiles": "O=C(N[C@H](Cc1ccccc1C(F)(F)F)[C@@H](O)C(=O)O)c1cc(C(=O)O)[nH]n1", "note": "[Example 6-2, 5-[(1R,2R)-2-Carboxy-2-hydroxy-1-(2-trifluoromethyl-benzyl)-ethylcarbamoyl]-2H-pyrazole-3-carboxylic acid]", "values": [
      {"measurement": "Ki", "result": "1.26 to 10", "unit": "nM"}
    ]},
    {"smiles": "O=C(N[C@H](Cc1ccccc1Cl)[C@@H](O)C(=O)O)c1cc(-c2ccco2)[nH]n1", "note": "[Example 2-52, (2R,3R)-4-(2-Chloro-phenyl)-3-[(5-furan-2-yl-1H-pyrazole-3-carbonyl)-amino]-2-hydroxy-butyric acid]", "values": [
      {"measurement": "Ki", "result": "12.6 to 100", "unit": "nM"}
    ]},
    {"smiles": "COc1c(F)c(F)c(Cn2nc(C(=O)N[C@H](Cc3ccccc3Cl)[C@@H](O)C(=O)O)cc2C(=O)O)c(F)c1F", "note": "[Example 2-35, 5-[(1R,2R)-2-Carboxy-1-(2-chloro-benzyl)-2-hydroxy-ethylcarbamoyl]-2-(2,3,5,6-tetrafluoro-4-methoxy-benzyl)-2H-pyrazole-3-carboxylic acid]", "values": [
      {"measurement": "Ki", "result": "≤ 1", "unit": "nM"}
    ]},
    {"smiles": "CN(C)C(=O)c1cc(C(=O)N[C@H](Cc2ccccc2)[C@@H](O)C(=O)O)nn1Cc1ccc(Cl)cc1", "note": "[Example 8-17, (2R,3R)-3-{[1-(4-Chloro-benzyl)-5-dimethylcarbamoyl-1H-pyrazole-3-carbonyl]-amino}-2-hydroxy-4-phenyl-butyric acid]", "values": [
      {"measurement": "Ki", "result": "12.6 to 100", "unit": "nM"}
    ]},
    {"smiles": "COc1ccc(Cn2nc(C(=O)N[C@H](Cc3ccccc3Cl)[C@@H](O)C(=O)O)cc2C(=O)O)cc1F", "note": "[Example 2-37, 5-[(1R,2R)-2-Carboxy-1-(2-chloro-benzyl)-2-hydroxy-ethylcarbamoyl]-2-(3-fluoro-4-methoxy-benzyl)-2H-pyrazole-3-carboxylic acid]", "values": [
      {"measurement": "Ki", "result": "1.26 to 10", "unit": "nM"}
    ]},
    {"smiles": "O=C(N[C@H](Cc1ccccc1)[C@@H](O)C(=O)O)c1cc(C(=O)N2CCOCC2)n(Cc2ccc(Cl)cc2)n1", "note": "[Example 8-18, (2R,3R)-3-{[1-(4-Chloro-benzyl)-5-(morpholine-4-carbonyl)-1H-pyrazole-3-carbonyl]-amino}-2-hydroxy-4-phenyl-butyric acid]", "values": [
      {"measurement": "Ki", "result": "12.6 to 100", "unit": "nM"}
    ]},
    {"smiles": "O=C(N[C@H](Cc1ccccc1Cl)[C@@H](O)C(=O)O)c1cc(C(=O)O)n(Cc2ccc(OC(F)F)cc2)n1", "note": "[Example 2-26, 5-[(1R,2R)-2-Carboxy-1-(2-chloro-benzyl)-2-hydroxy-ethylcarbamoyl]-2-(4-difluoromethoxy-benzyl)-2H-pyrazole-3-carboxylic acid]", "values": [
      {"measurement": "Ki", "result": "≤ 1", "unit": "nM"}
    ]},
    {"smiles": "O=C(N[C@H](Cc1ccccc1Cl)[C@@H](O)C(=O)O)c1cc(C(=O)O)n(Cc2ccc(OC(F)(F)F)c(F)c2)n1", "note": "[Example 2-39, 5-[(1R,2R)-2-Carboxy-1-(2-chloro-benzyl)-2-hydroxy-ethylcarbamoyl]-2-(3-fluoro-4-trifluoromethoxy-benzyl)-2H-pyrazole-3-carboxylic acid]", "values": [
      {"measurement": "Ki", "result": "≤ 1", "unit": "nM"}
    ]},
    {"smiles": "O=C(N[C@H](Cc1ccccc1Cl)[C@@H](O)C(=O)O)c1cc(-c2cnccn2)[nH]n1", "note": "[Example 2-51, (2R,3R)-4-(2-Chloro-phenyl)-2-hydroxy-3-[(5-pyrazin-2-yl-1H-pyrazole-3-carbonyl)-amino]-butyric acid]", "values": [
      {"measurement": "Ki", "result": "12.6 to 100", "unit": "nM"}
    ]},
    {"smiles": "O=C(N[C@H](Cc1ccccc1Cl)[C@@H](O)C(=O)O)c1cc(C(=O)O)n(Cc2c(F)ccc(Cl)c2F)n1", "note": "[Example 2-14, 5-[(1R,2R)-2-Carboxy-1-(2-chloro-benzyl)-2-hydroxy-ethylcarbamoyl]-2-(3-chloro-2,6-difluoro-benzyl)-2H-pyrazole-3-carboxylic acid]", "values": [
      {"measurement": "Ki", "result": "1.26 to 10", "unit": "nM"}
    ]},
    {"smiles": "CN(C)C(=O)c1cc(C(=O)N[C@H](Cc2ccccc2C(F)(F)F)[C@@H](O)C(=O)O)n[nH]1", "note": "[Example 6-7, (2R,3R)-3-[(5-Dimethylcarbamoyl-1H-pyrazole-3-carbonyl)-amino]-2-hydroxy-4-(2-trifluoromethyl-phenyl)-butyric acid]", "values": [
      {"measurement": "Ki", "result": "1.26 to 10", "unit": "nM"}
    ]},
    {"smiles": "COc1ccc(Cn2nc(C(=O)N[C@H](Cc3ccccc3Cl)[C@@H](O)C(=O)O)cc2C(=O)O)cc1", "note": "[Example 2-21, 5-[(1R,2R)-2-Carboxy-1-(2-chloro-benzyl)-2-hydroxy-ethylcarbamoyl]-2-(4-methoxy-benzyl)-2H-pyrazole-3-carboxylic acid]", "values": [
      {"measurement": "Ki", "result": "≤ 1", "unit": "nM"}
    ]},
    {"smiles": "O=C(N[C@H](Cc1ccccc1Cl)[C@@H](O)C(=O)O)c1cc(-c2ccc(-c3ccccc3)cc2)[nH]n1", "note": "[Example 2-49, (2R,3R)-3-[(5-Biphenyl-4-yl-1H-pyrazole-3-carbonyl)-amino]-4-(2-chloro-phenyl)-2-hydroxy-butyric acid]", "values": [
      {"measurement": "Ki", "result": "12.6 to 100", "unit": "nM"}
    ]},
    {"smiles": "COc1ccc(Cn2cc(C(=O)N[C@H](Cc3ccccc3Cl)[C@@H](O)C(=O)O)cn2)c(F)c1F", "note": "[Example 4-1, (2R,3R)-4-(2-Chloro-phenyl)-3-{[1-(2,3-difluoro-4-methoxy-benzyl)-1H-pyrazole-4-carbonyl]-amino}-2-hydroxy-butyric acid]", "values": [
      {"measurement": "Ki", "result": "1.26 to 10", "unit": "nM"}
    ]},
    {"smiles": "COc1ccc(Cn2nc(C(=O)N[C@H](Cc3ccccc3Cl)[C@@H](O)C(=O)O)cc2C(=O)O)c(F)c1F", "note": "[Example 2-27, 5-[(1R,2R)-2-Carboxy-1-(2-chloro-benzyl)-2-hydroxy-ethylcarbamoyl]-2-(2,3-difluoro-4-methoxy-benzyl)-2H-pyrazole-3-carboxylic acid]", "values": [
      {"measurement": "Ki", "result": "≤ 1", "unit": "nM"}
    ]},
    {"smiles": "CCOc1ncc(Cn2nc(C(=O)N[C@H](Cc3ccccc3Cl)[C@@H](O)C(=O)O)cc2C(=O)O)cn1", "note": "[Example 2-62, 5-[(1R,2R)-2-Carboxy-1-(2-chloro-benzyl)-2-hydroxy-ethylcarbamoyl]-2-(2-ethoxy-pyrimidin-5-ylmethyl)-2H-pyrazole-3-carboxylic acid]", "values": [
      {"measurement": "Ki", "result": "≤ 1", "unit": "nM"}
    ]},
    {"smiles": "O=C(N[C@H](Cc1ccccc1Cl)[C@@H](O)C(=O)O)c1cc(C(=O)O)n(Cc2ccc(OC(F)(F)F)cc2)n1", "note": "[Example 2-33, 5-[(1R,2R)-2-Carboxy-1-(2-chloro-benzyl)-2-hydroxy-ethylcarbamoyl]-2-(4-trifluoromethoxy-benzyl)-2H-pyrazole-3-carboxylic acid]", "values": [
      {"measurement": "Ki", "result": "≤ 1", "unit": "nM"}
    ]}
  ]
}
